Assay results: publication PMC8235661, “Photoelectric Dye, NK-5962, as a Potential Drug for Preventing Retinal Neurons from Apoptosis: Pharmacokinetic Studies Based on Review of the Evidence” (Life, 2021)
Several values for one entry are separate records, joined by “and”; a condition that tells them apart may be missing. Identical values can stand only once. Like-named read-outs stand apart in the source and are kept apart here.

Columns and labels:
[1] = Repeated-dose systemic toxicity test; conditions: in vivo
[2] = Reactive oxygen species (ROS) assay under simulated sunlight; format: physicochemical
Method: The ROS assay was designed to detect both singlet oxygen and superoxide generated from photo-irradiated chemicals. Briefly, singlet oxygen was measured in aqueous solution by spectrophotometrically monitoring the bleaching of p-nitrosodimethylaniline at 440 nm using imidazole as a selective acceptor of singlet oxygen. Samples containing the tested chemical (20 or 200 μM), p-nitrosodimethylaniline (50 μM), and imidazole (50 μM) in 20 mM sodium phosphate buffer (pH 7.4) were mixed in a tube. Each sample in 200 μL was transferred into a well of a plastic 96-well plate (clear, untreated, and flat-bottomed) and checked for precipitation under a microscope with an objective lens (×100) before light exposure. The plate was subjected to a measurement of absorbance at 440 nm using a microplate spectrophotometer. The plate was fixed in the quartz reaction container with a quartz cover and then irradiated with the simulated sunlight (ultraviolet A/B and visible light, 250 W/m^2, Suntest CPS plus, Atlas Material Testing Technology, Mount Prospect, IL, USA) for 1 h. After agitation on a plate shaker, the UV absorbance at 440 nm was measured. For the determination of superoxide, samples containing the test chemical (20 or 200 μM) and nitroblue tetrazolium (50 μM) in 20 mM sodium phosphate buffer were irradiated with the simulated sunlight for 1 h and the reduction in nitroblue tetrazolium was measured by the increase in absorbance at 560 nm in the same manner as the singlet oxygen determination. Experiments were performed in triplicate wells in three independent runs. As the final concentration, 200 μM test chemical solutions should be subjected to the ROS assay. However, when precipitation could be observed at 200 μM under the optical microscope, additional experiments should be performed under appropriate dilution (20, 50, or 100 μM).

[3] = Tests for the biological evaluation of medical devices (ISO 10993); conditions: data not shown
[4] = Eye ball concentration after topical application as eye drops; format: in vivo; conditions: Wistar, rat
Method: The NK-5962 solutions at 16 μM concentration in phosphate-buffered saline and at 39.7 μM concentration in 0.5% methyl cellulose 400 solution (FUJIFILM Wako Chemicals, Osaka, Japan) were prepared as eye drops and topically applied to both eyes of two Wistar rats assigned for each concentration. The eyes were enucleated 30 min after topical application, washed twice in saline, weighed, and frozen for NK-5962 measurement. In parallel, 3 μL of the NK-5962 solution at 16 μM concentration in phosphate-buffered saline was injected into the vitreous of both eyes of 2 Wistar rats. The eyes in each rat were enucleated 5 min and 2 h after the intravitreous injection, washed twice in saline, weighed, and then frozen. Both eyes of one rat served as the negative control. This study was approved by the Animal Care and Use Committee at Okayama University (Identifier OKU-2016267, OKU-2019196).
Liquid chromatography and tandem mass spectrometry instrument (LC-MS8060) equipped with Shimadzu Nexera series LC system (Shimadzu, Kyoto, Japan) were used. All compounds were analyzed in multi-reaction monitoring mode under electron spray ionization conditions. The analytical column used was a […] C18 MGIII (3 μm × 2.0 mmID × 35 mm; OSAKA SODA, Osaka, Japan) at 50 °C. […]

[5] = system: chick retinal pigment epithelial cells; parameters: method as in PMID 18414992; conditions: 6.6 × 10^−5, 6.6 × 10^−6 and 6.6 × 10^−7 M, 4 h, dark or light 320 lux; cited from earlier work
[6] = system: chick retinal cells including neurons and glial cells; parameters: method as in PMID 18414992; conditions: cited from earlier work; for The Percentage of Dead Cells in Total Cells: 2 days, per well
[7] = 20 µM, simulated sunlight 1 h, mean ± standard deviation (n = 3)

## CCCCN(CCCC)c1ccc(C=Cc2sc3ccccc3[n+]2CC(=O)O)cc1.[Br-] [NK-5962, 2-[2-[4-(dibutylamino)phenyl]ethenyl]-3-carboxymethylbenzothiazolium bromide]
[1]
  repeated-dose systemic toxicity test: not toxic
[2]; [7]
  Reactive Oxygen Species Generation Singlet oxygen: 93 ± 14 ΔA440 × 1000
  Reactive Oxygen Species Generation Superoxide: Not detected
[2]; low level of reactive oxygen species generation
  phototoxicity conclusion from ROS assay: less phototoxic
[3]
  toxicity in all tests for the biological evaluation of medical devices (ISO 10993): safe
[4]; topical eye drop 16 µM (10 µL)
  concentration at 0.5 h: 0.14 nM
[4]; topical eye drop 39.7 µM (10 µL)
  concentration at 0.5 h: 0.96 nM
[5]
  percent cytotoxicity value: negative in all groups
[6]; 2 days culture, dark or light condition, P = 0.0183 two-factor ANOVA
  percentage of dead cells, dependence on concentration: significantly smaller at higher concentrations
[6]; NK-5962 1.6 × 10^−5 M, light exposure yes (230 lux 9 h daily)
  The Percentage of Dead Cells in Total Cells: 1.3% and 0% and 0.5% and 0.3% and 1.9% and 3.2% and 3.0%
[6]; NK-5962 1.6 × 10^−6 M, light exposure no
  The Percentage of Dead Cells in Total Cells: 2.5% and 0.4% and 1.3% and 2.4% and 0.8% and 1.7% and 1.9% and 1.4%
[6]; NK-5962 1.6 × 10^−7 M, light exposure no
  The Percentage of Dead Cells in Total Cells: 5.1% and 2.0% and 0.3% and 1.2% and 0% and 2.3% and 2.2% and 1.3%
